Test results: patent publication US4471131A, “Novel silyl esters of N-phosphonomethylglycine” (Monsanto Company, priority 1983, dated 1984)

Experiments:
Assay in all cases: post-emergence herbicidal activity, greenhouse
Format in all cases: in vivo
Rice = conditions: Table III
In short: (§1)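 The readout is plant injury compared with untreated pans, taken at two time points, about two and four weeks after spraying. Plants had grown two to three weeks in greenhouse topsoil pans before atomizer treatment.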

Soybean = conditions: Table III
In short: as §1

Sugar Beet = conditions: Table III
In short: as §1

Velvetleaf = test system: Velvetleaf
In short: as §1

Wild Buckwheat = conditions: Table III
In short: as §1

[1] = 2 WAT, 1.1 kg/h, formulated in anhydrous tetrahydrofuran
[2] = 2 WAT, 5.6 kg/h, formulated in anhydrous tetrahydrofuran
[3] = 2 WAT, .28 kg/h, formulated in anhydrous tetrahydrofuran
[4] = 4 WAT, 1.1 kg/h, formulated in anhydrous tetrahydrofuran
[5] = 4 WAT, 5.6 kg/h, formulated in anhydrous tetrahydrofuran
[6] = 4 WAT, .28 kg/h, formulated in anhydrous tetrahydrofuran

## CCOC(=O)CNCP(=O)(O)O[Si](c1ccccc1)(c1ccccc1)C(C)(C)C [Ex. 7, Glycine, N--((([(1,1-Dimethylethyl)Diphenylsilyl]Oxy)Hydroxyphosphinyl)Methyl)-,Ethyl Ester]
Rice; 2 WAT, 1.1 kg/h
  Plant Response Index (O): 2 (50-74% inhibition)
Rice; [1]
  Plant Response Index (O): 1 (25-49% inhibition)
Rice; 2 WAT, 5.6 kg/h
  Plant Response Index (O): 2 (50-74% inhibition)
Rice; [2]
  Plant Response Index (O): 3 (75-99% inhibition)
Rice; 2 WAT, .28 kg/h
  Plant Response Index (O): 2 (50-74% inhibition)
Rice; [3]
  Plant Response Index (O): 1 (25-49% inhibition)
Rice; 4 WAT, 1.1 kg/h
  Plant Response Index (O): 3 (75-99% inhibition)
Rice; [4]
  Plant Response Index (O): 1 (25-49% inhibition)
Rice; 4 WAT, 5.6 kg/h
  Plant Response Index (O): 3 (75-99% inhibition)
Rice; [5]
  Plant Response Index (O): 3 (75-99% inhibition)
Rice; 4 WAT, .28 kg/h
  Plant Response Index (O): 1 (25-49% inhibition)
Rice; [6]
  Plant Response Index (O): 0 (0-24% inhibition)
Soybean; 2 WAT, 1.1 kg/h
  Plant Response Index (L): 2 (50-74% inhibition)
Soybean; [1]
  Plant Response Index (L): 1 (25-49% inhibition)
Soybean; 2 WAT, 5.6 kg/h
  Plant Response Index (L): 2 (50-74% inhibition)
Soybean; [2]
  Plant Response Index (L): 2 (50-74% inhibition)
Soybean; 2 WAT, .28 kg/h
  Plant Response Index (L): 0 (0-24% inhibition)
Soybean; [3]
  Plant Response Index (L): 1 (25-49% inhibition)
Soybean; 4 WAT, 1.1 kg/h
  Plant Response Index (L): 1 (25-49% inhibition)
Soybean; [4]
  Plant Response Index (L): 1 (25-49% inhibition)
Soybean; 4 WAT, 5.6 kg/h
  Plant Response Index (L): 1 (25-49% inhibition)
Soybean; [5]
  Plant Response Index (L): 2 (50-74% inhibition)
Soybean; 4 WAT, .28 kg/h
  Plant Response Index (L): 0 (0-24% inhibition)
Soybean; [6]
  Plant Response Index (L): 1 (25-49% inhibition)
Sugar Beet; 2 WAT, 1.1 kg/h
  Plant Response Index (M): 1 (25-49% inhibition)
Sugar Beet; [1]
  Plant Response Index (M): 1 (25-49% inhibition)
Sugar Beet; 2 WAT, 5.6 kg/h
  Plant Response Index (M): 1 (25-49% inhibition)
Sugar Beet; [2]
  Plant Response Index (M): 3 (75-99% inhibition)
Sugar Beet; 2 WAT, .28 kg/h
  Plant Response Index (M): 1 (25-49% inhibition)
Sugar Beet; [3]
  Plant Response Index (M): 1 (25-49% inhibition)
Sugar Beet; 4 WAT, 1.1 kg/h
  Plant Response Index (M): 1 (25-49% inhibition)
Sugar Beet; [4]
  Plant Response Index (M): 1 (25-49% inhibition)
Sugar Beet; 4 WAT, 5.6 kg/h
  Plant Response Index (M): 2 (50-74% inhibition)
Sugar Beet; [5]
  Plant Response Index (M): 4 (100% inhibition)
Sugar Beet; 4 WAT, .28 kg/h
  Plant Response Index (M): 1 (25-49% inhibition)
Sugar Beet; [6]
  Plant Response Index (M): 1 (25-49% inhibition)
Velvetleaf; Table II, 2 WAT, 5.6 kg/h
  Plant Response Index (C): 2 (50-74% inhibition)
Velvetleaf; Table II, 2 WAT, 5.6 kg/h, formulated in anhydrous tetrahydrofuran
  Plant Response Index (C): 1 (25-49% inhibition)
Velvetleaf; Table II, 2 WAT, 11.2 kg/h
  Plant Response Index (C): 3 (75-99% inhibition)
Velvetleaf; Table II, 2 WAT, 11.2 kg/h, formulated in anhydrous tetrahydrofuran
  Plant Response Index (C): 1 (25-49% inhibition)
Velvetleaf; Table II, 4 WAT, 5.6 kg/h
  Plant Response Index (C): 3 (75-99% inhibition)
Velvetleaf; Table II, 4 WAT, 5.6 kg/h, formulated in anhydrous tetrahydrofuran
  Plant Response Index (C): 2 (50-74% inhibition)
Velvetleaf; Table II, 4 WAT, 11.2 kg/h
  Plant Response Index (C): 3 (75-99% inhibition)
Velvetleaf; Table II, 4 WAT, 11.2 kg/h, formulated in anhydrous tetrahydrofuran
  Plant Response Index (C): 1 (25-49% inhibition)
Velvetleaf; Table III, 2 WAT, 1.1 kg/h
  Plant Response Index (C): 1 (25-49% inhibition)
Velvetleaf; Table III, 2 WAT, 1.1 kg/h, formulated in anhydrous tetrahydrofuran
  Plant Response Index (C): 2 (50-74% inhibition)
Velvetleaf; Table III, 2 WAT, 5.6 kg/h
  Plant Response Index (C): 2 (50-74% inhibition)
Velvetleaf; Table III, 2 WAT, 5.6 kg/h, formulated in anhydrous tetrahydrofuran
  Plant Response Index (C): 2 (50-74% inhibition)
Velvetleaf; Table III, 2 WAT, .28 kg/h
  Plant Response Index (C): 1 (25-49% inhibition)
Velvetleaf; Table III, 2 WAT, .28 kg/h, formulated in anhydrous tetrahydrofuran
  Plant Response Index (C): 1 (25-49% inhibition)
Velvetleaf; Table III, 4 WAT, 1.1 kg/h
  Plant Response Index (C): 1 (25-49% inhibition)
Velvetleaf; Table III, 4 WAT, 1.1 kg/h, formulated in anhydrous tetrahydrofuran
  Plant Response Index (C): 2 (50-74% inhibition)
Velvetleaf; Table III, 4 WAT, 5.6 kg/h
  Plant Response Index (C): 2 (50-74% inhibition)
Velvetleaf; Table III, 4 WAT, 5.6 kg/h, formulated in anhydrous tetrahydrofuran
  Plant Response Index (C): 3 (75-99% inhibition)
Velvetleaf; Table III, 4 WAT, .28 kg/h
  Plant Response Index (C): 1 (25-49% inhibition)
Velvetleaf; Table III, 4 WAT, .28 kg/h, formulated in anhydrous tetrahydrofuran
  Plant Response Index (C): 1 (25-49% inhibition)
Wild Buckwheat; 2 WAT, 1.1 kg/h
  Plant Response Index (Q): 2 (50-74% inhibition)
Wild Buckwheat; [1]
  Plant Response Index (Q): 2 (50-74% inhibition)
Wild Buckwheat; 2 WAT, 5.6 kg/h
  Plant Response Index (Q): 2 (50-74% inhibition)
Wild Buckwheat; [2]
  Plant Response Index (Q): 3 (75-99% inhibition)
Wild Buckwheat; 2 WAT, .28 kg/h
  Plant Response Index (Q): 2 (50-74% inhibition)
Wild Buckwheat; [3]
  Plant Response Index (Q): 1 (25-49% inhibition)
Wild Buckwheat; 4 WAT, 1.1 kg/h
  Plant Response Index (Q): 2 (50-74% inhibition)
Wild Buckwheat; [4]
  Plant Response Index (Q): 2 (50-74% inhibition)
Wild Buckwheat; 4 WAT, 5.6 kg/h
  Plant Response Index (Q): 3 (75-99% inhibition)
Wild Buckwheat; [5]
  Plant Response Index (Q): 3 (75-99% inhibition)
Wild Buckwheat; 4 WAT, .28 kg/h
  Plant Response Index (Q): 2 (50-74% inhibition)
Wild Buckwheat; [6]
  Plant Response Index (Q): 1 (25-49% inhibition)
